This is an account of results in US20120265121A1, “PHTHALOCYANINE-BASED ANTIFUNGAL AGENTS” (CASE WESTERN RESERVE UNIVERSITY, priority 2011, published 2012).

In test [1] the test system is C. albicans (strain SC-5134). Put plainly: Chromatin condensation by confocal microscopy. It is filed as cell-based, Candida albicans. As to conditions: highest dose of Pc 4-PDT or peroxide, 24 hr after treatment. As for the experimental part:
Confocal Microscopy: To investigate the uptake and localization of Pc 4, cells in standard growth medium plus 10% Fetal Bovine Serum (FBS) were loaded with 0.2 μM Pc 4 and incubated for 16 to 18 hr. Thirty minutes prior to imaging Pc 4, 50 nM MitoTracker Red (Invitrogen, Carlsbad, Calif., USA) or 50 μg/mL AlexaFluor 488-conjugated Concanavalin (Con) A (Invitrogen, Carlsbad, Calif., USA) and/or 10 μg/mL Hoechst 33342 (Invitrogen, Carlsbad, Calif., USA) was loaded onto cells. Five to 10 μL of stained cells were placed on a slide with a glass coverslip and all images acquired using an UltraVIEW VoX spinning disk confocal system (PerkinElmer, Waltham, Mass., USA), which was mounted on a Leica DMI6000B microscope (Leica Microsystems, Inc., Bannockburn, Ill., USA) equipped with a HCX PL APO 100×/1.4 oil immersion objective. Confocal images of Pc 4 fluorescence, MitoTracker Red, ConA (or FITC-labeled Annexin V) and Hoechst 33342 were collected using solid-state diode lasers, with 640-nm, 561-nm, 488-nm and 405-nm excitation light, respectively, and with appropriate emission filters.

Test [2] concerns C. albicans (strain SC-5134). Put plainly: FITC-labeled Annexin V staining of protoplasts (phosphatidylserine externalization). Format: cell-based, Candida albicans. As to conditions: positive controls: 20 mM H2O2 or 60 μM acetic acid, 4 hr. The method, then: Cells were then incubated for 4 hr before staining with FITC-labeled Annexin V. FIG. 4(a) provides confocal images of FITC-labeling of cells that had been treated with H2O2 or Pc 4-PDT. Scale bar, 20 μm. FIG. 4(b) provides a bar graph showing the results. For each experiment over 50-100 protoplasts cells were counted per sample. […] Cells were counted by eye using a Zeiss AxiovertTM S100 inverted epifluorescence microscope. Values represent the mean±S.E. from at least three independent experiments. […] Apoptosis Analyses: (A) FITC-labeled Annexin V staining-To assess the externalization of phosphatidylserine, protoplasts of C. albicans were stained with FITC-labeled Annexin V using the Annexin V-FLUOS staining kit (Roche, Germany) with minor modifications. Madeo et al., J Cell Biol 139:729-734 (1997); Park et al., Biochem Biophys Res Commun 394:170-172 (2010). Briefly, control and treated cells were washed three times with 1× PBS before incubating at 37° C. for 30 min in a protoplasting solution (50 mM KH2PO4, 5 mM EDTA and 50 mM DTT). Then cells were digested at 37° C. for 45 min in an enzyme solution (50 mM K2HPO4, 40 mM 2-mercaptoethanol, 3 μg/mL Chitinase, 1.8 μg/mL […], 0.15 mg/mL Zymolyase and 2.4 M sorbitol). 1× PBS was added to each sample and incubated for 30 min at room temperature in all experiments. Protoplasts were then incubated with 100 μL of Annexin V-FLUOS labeling solution for 15 min at 25° C. FITC-labeled Annexin V fluorescence was detected by both widefield (Leica DMI6000B microscope; Leica Microsystems, Inc., Bannockburn, Ill., USA) and confocal fluorescence microscopy.

On to `OO` [H2O2, hydrogen peroxide, reference compound], for which the chromatin condensation result in test [1] is “detected”. In test [2], the “Annexin V positive cells” value was roughly 27%.

Regarding `CC(=O)O` [acetic acid], the “Annexin V positive cells” value in test [2] is on record as roughly 27%.
